According to paper PMC11664589, “A Versatile “Synthesis Tag” (SynTag) for the Chemical Synthesis of Aggregating Peptides and Proteins” (Journal of the American Chemical Society, 2024):
Starred links: 1 amine or outer side, 2 acyl side, 3 side chain; linkers in the order of their positions; H or OH if unused. Non-standard residues stand in square brackets, D forms with d. Residues, ends and D or L forms follow the SMILES beside them. No end group written: not given here. X1 = C[C@H](N[*:1])C(=O)n1c(=O)n(C)c2ccc(C(=O)[*:2])cc21

Assays:
[1] = UHPLC elution as indicator of hydrophilicity; assay type: physicochemical; conditions: standard UHPLC conditions, 214 nm; with versus without SynTag
[2] = once synthesized; cited from earlier work
Source text: Amyloid-β is a biologically relevant peptide that is investigated for its role in Alzheimer’s disease (Figure 5D). The peptide is notoriously difficult to synthesize because it severely aggregates at the very beginning of the synthesis (i.e., residues 27–42).

CC[C@H](C)[C@H](NC(=O)[C@H](C)NC(=O)CNC(=O)[C@@H](N)CCCCN)C(=O)N[C@H](C(=O)NCC(=O)N[C@@H](CC(C)C)C(=O)N[C@@H](CCSC)C(=O)N[C@H](C(=O)NCC(=O)NCC(=O)N[C@H](C(=O)N[C@H](C(=O)N[C@H](C(=O)N[C@@H](C)C(=O)n1c(=O)n(C)c2ccc(C(=O)N[C@@H](CCCNC(=N)N)C(=O)N[C@@H](CCCNC(=N)N)C(=O)N[C@@H](CCCNC(=N)N)C(=O)N[C@@H](CCCNC(=N)N)C(=O)N[C@@H](CCCNC(=N)N)C(=O)N[C@@H](CCCNC(=N)N)C(N)=O)cc21)[C@@H](C)CC)C(C)C)C(C)C)C(C)C)[C@@H](C)CC [Aβ42[27–42]-SynTag] (H-KGAIIGLMVGGVVI[X1]RRRRRR-NH2)
hydrophilicity by UHPLC elution / peak shape (in words) [1]: increased hydrophilicity

Amyloid-β: biologically relevant peptide investigated for its role in Alzheimer’s disease
solubility (in words) [2]: barely soluble

KGAIIGLMVGGVVIA-NH2 [Aβ42[27–42]]
hydrophilicity by UHPLC elution / peak shape (in words) [1]: elutes later than Aβ42[27–42]-MeNbz-Arg6
